According to PubChem BioAssay AID1963833 (Molecular Pharmacology Branch, DTP, NCI, 2024):

Tested on: 883617-216-R-J1-PDC complex spheroid viability
Experiment: Anticancer human tumor 883617-216-R-J1-PDC patient-derived bladder carcinoma cell line growth inhibition [POLQ]
Conditions: for IC50: curve of first compound; for viability, T/C: stronger effect = lower value
How it was run: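 Complex spheroid viability model combining PDC tumour cells with endothelial (HUVEC) and MSC stromal cells. Novobiocin, ART-558 or RP6685 were tested singly and in combination with standard and investigational anticancer drugs. Each was titrated in half-log steps from near clinical Cmax, or from 10 microM where Cmax was unknown.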

[1] = second compound 0.0316 µM, first compound 0.0316 µM
[2] = second compound 0.0316 µM, first compound 0.1 µM
[3] = second compound 0.0316 µM, first compound 0.316 µM
[4] = second compound 0.0316 µM, first compound 1 µM
[5] = second compound 0.0316 µM, first compound 3.16 µM
[6] = second compound 0.0316 µM, first compound 10 µM
[7] = second compound 0.1 µM, first compound 0.0316 µM
[8] = second compound 0.1 µM, first compound 0.1 µM
[9] = second compound 0.1 µM, first compound 0.316 µM
[10] = second compound 0.1 µM, first compound 1 µM
[11] = second compound 0.1 µM, first compound 3.16 µM
[12] = second compound 0.1 µM, first compound 10 µM
[13] = second compound 0.316 µM, first compound 0.0316 µM
[14] = second compound 0.316 µM, first compound 0.1 µM
[15] = second compound 0.316 µM, first compound 0.316 µM
[16] = second compound 0.316 µM, first compound 1 µM
[17] = second compound 0.316 µM, first compound 3.16 µM
[18] = second compound 0.316 µM, first compound 10 µM
[19] = second compound 1 µM, first compound 0.0316 µM
[20] = second compound 1 µM, first compound 0.1 µM
[21] = second compound 1 µM, first compound 0.316 µM
[22] = second compound 1 µM, first compound 1 µM
[23] = second compound 1 µM, first compound 3.16 µM
[24] = second compound 1 µM, first compound 10 µM
[25] = second compound 3.16 µM, first compound 0.0316 µM
[26] = second compound 3.16 µM, first compound 0.1 µM
[27] = second compound 3.16 µM, first compound 0.316 µM
[28] = second compound 3.16 µM, first compound 1 µM
[29] = second compound 3.16 µM, first compound 3.16 µM
[30] = second compound 3.16 µM, first compound 10 µM
[31] = second compound 10 µM, first compound 0.0316 µM
[32] = second compound 10 µM, first compound 0.1 µM
[33] = second compound 10 µM, first compound 0.316 µM
[34] = second compound 10 µM, first compound 1 µM
[35] = second compound 10 µM, first compound 3.16 µM
[36] = second compound 10 µM, first compound 10 µM
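Note: spheroids exposed to compounds for seven days before readout.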
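Throughout, for viability, T/C: 100% = DMSO vehicle control viability.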

CCCS(=O)(=O)Nc1ccc(F)c(C(=O)c2c[nH]c3ncc(-c4ccc(Cl)cc4)cc23)c1F + Nc1ccc(C#CCN(C(=O)Cc2ncc(C(F)(F)F)cc2C(F)(F)F)c2ccc(F)cc2)nn1
IC50 (second compound 0.0316 µM): 9.41 µM
IC50 (second compound 0.1 µM): 8.35 µM
IC50 (second compound 0.316 µM): > 10 µM
IC50 (second compound 1 µM): > 10 µM
IC50 (second compound 3.16 µM): > 10 µM
IC50 (second compound 10 µM): > 10 µM
viability, T/C [1]: 91.8%
viability, T/C [2]: 104%
viability, T/C [3]: 91.6%
viability, T/C [4]: 102%
viability, T/C [5]: 106%
viability, T/C [6]: 47.2%
viability, T/C [7]: 98.2%
viability, T/C [8]: 86%
viability, T/C [9]: 109%
viability, T/C [10]: 112%
viability, T/C [11]: 85%
viability, T/C [12]: 43.5%
viability, T/C [13]: 104%
viability, T/C [14]: 92.8%
viability, T/C [15]: 103%
viability, T/C [16]: 111%
viability, T/C [17]: 91.7%
viability, T/C [18]: 54.5%
viability, T/C [19]: 111%
viability, T/C [20]: 103%
viability, T/C [21]: 89.2%
viability, T/C [22]: 92.4%
viability, T/C [23]: 88.7%
viability, T/C [24]: 50.7%
viability, T/C [25]: 111%
viability, T/C [26]: 102%
viability, T/C [27]: 110%
viability, T/C [28]: 98.3%
viability, T/C [29]: 99.6%
viability, T/C [30]: 59.7%
viability, T/C [31]: 106%
viability, T/C [32]: 107%
viability, T/C [33]: 118%
viability, T/C [34]: 125%
viability, T/C [35]: 95.2%
viability, T/C [36]: 57.6%

CNCc1ccc(-c2[nH]c3cc(F)cc4c3c2CCNC4=O)cc1 + Nc1ccc(C#CCN(C(=O)Cc2ncc(C(F)(F)F)cc2C(F)(F)F)c2ccc(F)cc2)nn1
IC50 (second compound 0.0316 µM): > 10 µM
IC50 (second compound 0.1 µM): > 10 µM
IC50 (second compound 0.316 µM): > 10 µM
IC50 (second compound 1 µM): > 10 µM
IC50 (second compound 3.16 µM): > 10 µM
IC50 (second compound 10 µM): > 10 µM
viability, T/C [1]: 93.8%
viability, T/C [2]: 86.4%
viability, T/C [3]: 83.8%
viability, T/C [4]: 101%
viability, T/C [5]: 110%
viability, T/C [6]: 92.1%
viability, T/C [7]: 96.9%
viability, T/C [8]: 79.8%
viability, T/C [9]: 96.8%
viability, T/C [10]: 107%
viability, T/C [11]: 102%
viability, T/C [12]: 95.2%
viability, T/C [13]: 104%
viability, T/C [14]: 81.3%
viability, T/C [15]: 88.4%
viability, T/C [16]: 96.8%
viability, T/C [17]: 104%
viability, T/C [18]: 89.8%
viability, T/C [19]: 95.5%
viability, T/C [20]: 105%
viability, T/C [21]: 106%
viability, T/C [22]: 113%
viability, T/C [23]: 104%
viability, T/C [24]: 76.1%
viability, T/C [25]: 92.4%
viability, T/C [26]: 102%
viability, T/C [27]: 91.7%
viability, T/C [28]: 103%
viability, T/C [29]: 102%
viability, T/C [30]: 98.1%
viability, T/C [31]: 116%
viability, T/C [32]: 107%
viability, T/C [33]: 120%
viability, T/C [34]: 101%
viability, T/C [35]: 127%
viability, T/C [36]: 102%

COc1cccc(OCCCN)c1-c1cc(Nc2cnc(C#N)cn2)n[nH]1 + Nc1ccc(C#CCN(C(=O)Cc2ncc(C(F)(F)F)cc2C(F)(F)F)c2ccc(F)cc2)nn1
IC50 (second compound 0.0316 µM): 0.0774 µM
IC50 (second compound 0.1 µM): 0.0472 µM
IC50 (second compound 0.316 µM): 0.0871 µM
IC50 (second compound 1 µM): 0.12 µM
IC50 (second compound 3.16 µM): 0.0733 µM
IC50 (second compound 10 µM): 0.0856 µM
viability, T/C (second compound 0.0316 µM, first compound 0.00316 µM): 111%
viability, T/C (second compound 0.0316 µM, first compound 0.01 µM): 77%
viability, T/C [1]: 67%
viability, T/C [2]: 42.8%
viability, T/C [3]: 37.7%
viability, T/C [4]: 35.4%
viability, T/C (second compound 0.1 µM, first compound 0.00316 µM): 96.9%
viability, T/C (second compound 0.1 µM, first compound 0.01 µM): 95.6%
viability, T/C [7]: 55.2%
viability, T/C [8]: 43.6%
viability, T/C [9]: 41.4%
viability, T/C [10]: 33.7%
viability, T/C (second compound 0.316 µM, first compound 0.00316 µM): 99.3%
viability, T/C (second compound 0.316 µM, first compound 0.01 µM): 91.3%
viability, T/C [13]: 57.4%
viability, T/C [14]: 52.6%
viability, T/C [15]: 40.8%
viability, T/C [16]: 31.9%
viability, T/C (second compound 1 µM, first compound 0.00316 µM): 95.3%
viability, T/C (second compound 1 µM, first compound 0.01 µM): 78.2%
viability, T/C [19]: 64.8%
viability, T/C [20]: 53%
viability, T/C [21]: 40%
viability, T/C [22]: 28.6%
viability, T/C (second compound 3.16 µM, first compound 0.00316 µM): 85.9%
viability, T/C (second compound 3.16 µM, first compound 0.01 µM): 89.8%
viability, T/C [25]: 67.1%
viability, T/C [26]: 39.5%
viability, T/C [27]: 47.1%
viability, T/C [28]: 44.5%
viability, T/C (second compound 10 µM, first compound 0.00316 µM): 109%
viability, T/C (second compound 10 µM, first compound 0.01 µM): 89.8%
viability, T/C [31]: 63.6%
viability, T/C [32]: 48.8%
viability, T/C [33]: 39.5%
viability, T/C [34]: 36.2%
